Results from US8580496B2, “Method and kit for the detection of genes associated with PIK3CA mutation and involved in PI3K/AKT pathway activation in the ER-postitive and HER2-positive subtypes with clinical implications” (Universite Libre de Bruxelles, priority 2008, dated 2013).

Experiments:
breast cancer patients = test: Clinical outcome of breast cancer patients treated with tamoxifen, by PIK3CA mutated signature; type: in vivo, human
From the text: Primary breast cancer tumour samples from a previously described “tamoxifen-only treated” data set (Loi, 2007; J. Clin Oncol., 25, 1239-46;) were collected for DNA extraction and mutation analysis. The inventors obtained DNA from 173 samples for PIK3CA mutation sequencing and from 131 samples for AKT1 mutation analysis. The median follow-up of these samples was 9.0 yrs (range: 8.2-9.8 yrs), with 45 (28%) distant metastatic events.
Part of the tamoxifen-treated dataset has previously been described (Loi, 2007). Another 77 primary breast cancer samples also treated with tamoxifen monotherapy with corresponding Affymetrix gene expression data was also used for the survival analysis.
The inventors have developed an index called the PIK3CA index that could measure the similarity between the expression profile of any given tumour sample and the PI3K/AKT pathway activation by breast cancers with a PIK3CA mutation.
Statistical analysis was performed using the SPSS statistical software package (SPSS Inc. Chicago, Ill.) version 13.0. […]
Breast cancer molecular subgroups were defined using a previously reported method of WIRAPATI ET AL, 2008, Breast cancer […], 10, R65. The gene expression grade index (GGI) was used as a quantification of the expression of proliferation genes (SOTRIOU ET AL, 2006). […]

[1] = test system: PIK3CA mutant lines including MCF7 and T47D; test: Sensitivity of breast cancer cell lines to tamoxifen, PIK3CA mutant vs normal lines; type: cell-based

## CC/C(=C(\c1ccccc1)c1ccc(OCCN(C)C)cc1)c1ccccc1 [tamoxifen]
Breast cancer patients; Her2 positive BC patients with the mutated PIK3CA signature vs the other Her2 positive patients
  response to tamoxifen: responded better
Breast cancer patients; luminal B tumours, higher vs lower expression levels of the PIK3CA signature (FIG. 4)
  benefit from tamoxifen (clinical outcome): benefit better
[1]
  sensitivity to tamoxifen: more sensitive
